In assay [1] the test system is telomerized human diploid fibroblasts. The experiment in a line: Comet tail assay after IR. The class given is cell-based. To be noted: 24 hours treatment prior to IR, 0-8 Gy. The method, then:
Telomerized human diploid fibroblasts were irradiated and then immobilized. After immobilization, cell nuclei were exposed to an electric field by gel electrophoresis, with fragmented DNA migrating further than undamaged DNA.
Comet tail assay: Cells were seeded and allowed to adhere overnight in a 6 cm culture dish. Cells were then treated for 24 hours with a CDK4/6 inihibitor or dimethyl sulfoxide (DMSO) only. After 24 hours cells were irradiated as described. Cells were then fixed and treated as described in manufacturer instructions for the COMETASSAY™ purchased from Trevigen (Gaithersburg, Md., United States of America). In summary, cells were embedded in agarose, the membranes are permeabilized, DNA is denatured in alkali solution, and the DNA is mobilized using gel electrophoresis. Images of the comet tails were obtained by fluorescent microscopy (see Microscopy) and images were analyzed using CometScore software from TriTek Corp. (Sumerduck, Va., United States of America) at either 10× or 20× magnification.

In assay [2] the test system is hematopoietic stem and progenitor cells. The experiment in a line: HSPC proliferation in vivo (BrdU incorporation, Ki67) by flow cytometry. More on the design: species or system mice. The method, then: BrdU Incorporation in vivo: Mice were treated once daily for 2 days with PD 0332991 at 150 mg/kg. 5-Bromo-2-deoxyuridine (BrdU) was given 24 hours after the initiation of PD 0332991 and continued until the animals were sacrificed for analysis: 24 hours of BrdU by intraperitoneal (i.p.) injection every 6 hours at a dose of 1 mg.
For HSPC proliferation experiments, mice received daily oral gavage with PD0332991 for 2 days with 1 mg BrdU intraperitoneal injection every 6 hours for 24 hours prior to sacrifice. BM-MNC harvest and immunophenotyping was performed using RBC lysis, biotin-conjugated Lin-panel incubation (Invitrogen Corporation, Carlsbad, Calif., United States of America), paramagnetic bead-conjugated straptavidin (Miltinyi Biotec, Bergisch Gladbach, Germany) incubation, and magnetic depletion using an AutoMACS (Miltinyi Biotec, Bergisch Gladbach, Germany). At least 2×10^6 Lin-depleted cells per mouse were incubated with fluorescently labeled antibodies against cell surface antigens used to identify hematopoietic progenitor subpopulations as previously described (see Passegue et al., J. Exp. Med., 202, 1599-1611 (2005); and Kiel et al., Cell, 121, 1109-1121 (2005): CD34-FITC, CD16/32-PacificBlue, IL7Ra-PE-Cy5, and cKit-APC-Alexa750 from eBiosciences, Inc. (San Diego, Calif., United States of America); Sca1-PE-Cy7, CD150-PE-Cy5, and CD48-PacificBlue from BioLegend (San Diego, Calif., United States of America); and Aqua Live/Dead viability dye (Invitrogen Corporation, Carlsbad, Calif., United States of America). Streptavidin-PE-TexasRed (Invitrogen Corporation, Carlsbad, Calif., United States of America) was used to confirm efficiency of lineage-depletion. After cell surface staining, cells were fixed, permeabilized, and stained with antibodies against Ki67-FITC, BrdU-APC, and caspase3-PE (BD Biosciences Pharmingen, San Diego, Calif., United States of America).
In all experiments, gating based on isotype controls was used as appropriate. Flow cytometry was performed using a CyAn ADP (Dako, Glostrup, Denmark) and analyzed with FlowJo software (Tree Star, Ashland, Oreg., United States of Ameria). For each bone marrow sample, a minimum of 200,000 cells were analyzed. For cell culture samples, a minimum of 20,000 cells were analyzed.
PD0332991, which is orally bioavailable, was administered to adult wild-type C57Bl/6 mice by oral gavage. […] See Passeque et al., J. Exp. Med., 202, 1599-1611 (2005); Wilson et al., Cell, 125, 1118-1129 (2008); and Kiel et al., Nature, 449, 238-U210 (2007).
2BrIC was solubilized for oral gavage using formulation #6 from the Hot Rod formulation kit (Pharmatek, Inc. San Diego, Calif., United States of America) and given by oral gavage 2 hours prior to BrdU injection. Also, an additional dose was given at the time of BrdU injection to sustain the G1 arrest in bone marrow.
A general note: Dividing cells build labelled thymidine or BrdU into new DNA.

The test system of assay [3] is telomerized human diploid fibroblasts (tHDF). The experiment in a line: Cell cycle analysis (BrdU incorporation in vitro), tHDF. The class given is cell-based. To be noted: 24 hours exposure. An excerpt: FIG. 3A is a set of graphs showing the dose-response curves for cycle analysis in both cyclin-dependent kinase 4/6 (CKD4/6)-dependent cells (human telomerized human diploid fibroblasts (tHDFs, left-hand column of graphs) and a CDK4/6-dependent human melanoma cell line (WM2664, middle column of graphs)) and in CDK4/6-independent cells (a human retinoblastoma tumor suppressor protein (RB)-null melanoma cell line (A2058), right-hand column of graphs). […] The percentage of cells in the G1 phase is indicated by the data shown in the open triangles, while the percentage of cells in the S phase is shown by the data in the shaded circles and the percentage of cells in the G2/M phase is indicated by the data in the double “x”s.
Cell Lines: KPTR1, KPTR4. and KPTR5 were derived from tumor-bearing TyrRAS+Ink4a/Arf−/− by standard procedures and cultured in RPMI+10% fetal bovine serum (FBS). Telomerized HDFs (tHDFs, also known as HS68) were cultured in DMEM+10% FBS with penicillin and streptomycin. The same conditions were used for A2058 and WM2664, human melanoma cell lines with known RB-pathway mutations: A2058 is RB-null, whereas WM2664 lacks p16^INK4a/Arf. See Shields, et al., Cancer Res., 67, 1502-1512 (2007). Cells were irradiated for indicated doses in a Rad Source Inc. (Alpharetta, Ga., United States of America) RS-2000 Biological Irradiator at 160 kV, 25.0 mA, at distance setting 1, with a dose rate of 103 rads/min.
BrdU Incorporation in vitro: Cells were plated and allowed to adhere overnight or at least 6 hours prior to adding CDK4/6 inhibitor at the indicated concentrations. Cells were grown for 24 hours in the presence of CDK4/6 inhibitor. 15 minutes prior to cell harvesting, 5-Bromo-2-deoxyuridine (BrdU) was added to the media at a final concentration of 10 μM. The cells were then washed, trypsinized, pelleted, fixed, permeabilized, stained, and measured on a flow cytometer as described in manufacturer directions for the BrdU Kit (BD Biosciences Pharmingen, San Diego, Calif., United States of America).
The proliferation of seven RB-deficient human small cell lung cancer lines was also resistant to the selective CDK4/6 inhibitors.

The mark [4] stands for this setting: among oligopotent progenitors, 48 hours treatment.

Entries after “also recorded” stand apart in the source; their conditions may differ.

Take `CC(=O)c1c(C)c2cnc(Nc3ccc(N4CCNCC4)cn3)nc2n(C2CCCC2)c1=O` [PD0332991, 6-acetyl-8-cyclopentyl-5-methyl-2-(5-piperazin-1-yl-pyridin-2-ylamino)-8H-pyrido-[2,3-d]-pyrimidin-7-one]: the “DNA damage (comet tails) after IR” value in assay [1] is recorded as “greatly attenuated; also recorded: potently reduce comet tail formation”. Besides, in assay [2] (48 hours treatment), the “proliferation in early HSPC (BrdU incorporation, Ki67)” value is reported as “clearly reduces proliferation”; the “proliferation of Lin−Kit−Sca1− and Lin+ cells” value was “no change in proliferation”. Besides, in assay [2] (HSC (Lin−Kit+Sca1+CD48−CD150+), 48 hours treatment, oral gavage, C57Bl/6), the “frequency of HSC doubly positive for expression of Ki67 and BrdU” value is recorded as “significantly decreased”. Besides, the “proliferation of oligopotent progenitors” value in assay [2] (Lin−Kit+Sca1−, 48 hours treatment) is “modest inhibition of proliferation”. Also, in assay [2] (MPP (Lin−Kit+Sca1+CD48−CD150−), 48 hours treatment), the “proliferation of multipotent progenitor cell compartment” value is reported as “more pronounced inhibition of proliferation”. In addition, in assay [2] (setting [4]), the “proliferation of CMP and CLP” value is given as “strongest effects”; the “proliferation of GMP and MEP” value is “weaker effects”. In addition, the cell cycle effect result in assay [3] is listed as “strong, reversible G1-arrest”.
Consider `O=C1NC(=O)c2c1c1c3ccccc3[nH]c1c1[nH]c3cc(Br)ccc3c21` [Compound 2BrIC, 2-bromo-12,13-dihydro-5H-indolo[2,3-a]pyrrolo[3,4]-carbazole-5,6-dione], for which, in assay [1], the “DNA damage (comet tails) after IR” value is given as “attenuated; also recorded: potently reduce comet tail formation”. Moreover, the “incorporation of BrdU into MPP” value in assay [2] (Lin−Kit+Sca1+ cells, oral gavage 2 hours prior to and at BrdU injection, relative to formulation alone) is “inhibited the incorporation of BrdU; also recorded: clearly reducing proliferation of the MPP”. For the same compound, the cell cycle effect entry in assay [3] is “strong, reversible G1-arrest”.

Values taken from patent publication US20110224221A1, “HEMATOPOIETIC PROTECTION AGAINST IONIZING RADIATION USING SELECTIVE CYCLIN-DEPENDENT KINASE 4/6 INHIBITORS” (priority 2008, published 2011).
